Assay results as given in patent publication US9446092B2, “Use of a neurofilament peptide for the treatment of glioma” (UNIVERSITE D'ANGERS, priority 2009, dated 2016).
Ends that are not written are not given here.

Assays:
[1] = test system: primary human glioblastoma cells; assay: MTS assay on primary glioblastoma cells isolated after surgery; type: cell-based; settings: 40 nM, 72 h
Protocol: Primary human glioblastoma cells obtained from tissue samples extracted in human brains during surgery are put in culture in a DMEM medium containing glucose, L-glutamine, 10% fetal calf serum, […] (Sigma). Cells were plated (20 000 cells per cm^2) in MW96 and let grow at 37° C. in a humidified incubator gassed with 5% CO2. The peptides and/or drugs are added 48 hours after their plating.
(§1) The effects of peptides on the proliferation of glioma cells or astrocytes were evaluated by the MTS cytotoxicity assay and by counting directly the number of cells. For the MTS assay (Promega), 500 cells were seeded in 96-well plates, incubated at 37° C. for 24 hours, and treated by the peptide at the indicated concentrations for 24, 48 and 72 hours, or with vehicle (PBS or water). Media and peptides were replaced daily. Peptides were prepared in DMEM, and paclitaxel was dissolved in DMSO at a concentration of 2 mM and further diluted into DMEM. Viability was also determined by trypan blue staining. For manual counts, cells were treated with 0.25% trypsin/0.53 mM EDTA, centrifuged, and counted with a hemacytometer following addition of trypan blue dye. At each time, 3 to 6 wells per treatment were counted.

primary astrocytes = assay: Cell death analysis by flow cytometry (Annexin V / PI); type: cell-based, rat; settings: 100 μM, 72 hours, Annexin V/PI FACS
Protocol: (§2) To detect possible apoptotic processes, cells were seeded in 35 mm dishes and cultured in media containing biotinylated peptides (100 μM) or PBS alone for 72 hours. Paclitaxel (40 nM) was used as a positive control to induce apoptosis (Terzis et al., 1997). Cells were then trypsinized, washed in cold PBS, and stained with Annexin V-FITC (BD Pharmingen) in Annexin buffer for 15 min at room temperature. Finally, they were counterstained with 50 μg/mL propidium iodide (Sigma) and analyzed with a FACSCalibur flow cytometer. Experiment on each cell type was repeated three times. 20,000 events per sample were analyzed in each experiment.

9L cells [2] = assay: as above; type: cell-based, rat; settings: 100 μM, 72 hours, Annexin V/PI FACS
Protocol: as §2

F98 cells [3] = assay: as above; type: cell-based, rat; settings: 100 μM, 72 hours, Annexin V/PI FACS
Protocol: as §2

rat neurons = assay: Immunocytochemistry: peptide penetration and microtubule network; type: cell-based; settings: 10 μM, 6 h
Protocol: Hippocampal neuronal cultures were prepared from newborn rat brains according to Ray et al. 1993 and Kaech and Banker 2006. Briefly, the hippocampi of animals younger than 2 days were recovered, minced and digested in 0.01% trypsin for one hour at 37° C. Dissociated cells were plated on coverslips precoated with 5 μg/ml poly-1-lysine and 7 μg/ml collagen at densities of 2×10^5/ml and incubated at 37° C. with a 5% CO2 atmosphere. Twenty-four hours later, the plating solution was replaced by B-27 neurobasal medium, and the second day cytosine arabinoside (20 μM) was added to eliminate non-neural cells. Experiments were performed 7 days after plating.
Cells were plated on coverslips and cultured in media containing biotinylated peptides (10 μM) for 6 hours. Following PBS washing, the cells were fixed for 10 min in 4% paraformaldehyde, and washed 3 times in PBS. […]
(§3) Observations were carried out with an Olympus confocal microscope (BX50) using Fluoview.3.1. […] Images were acquired with a CoolSNAP-HQ2 camera and analyzed with Metamorph 7.1.7.0. software. Cells that are positive for peptide staining and cells with destroyed microtubule network were counted. Experiments on each cell type were repeated at least three times, and minimums of 200 cells were analyzed for each experiment.

9L cells [4] = assay: BrdU incorporation (cell proliferation); type: cell-based, rat; settings: 100 μM, 72 hours
Protocol: (§4) To assess cell proliferation, 5-bromodeoxyuridine (BrdU) immunohistochemistry was used. Cells were platted on coverslips and cultured in media containing biotinylated peptides (100 μM) for 72 hours, and incubated during 4 hours in the presence of 1 mg/mL BrdU (Sigma). Cells were then washed in PBS, fixed in 3% paraformaldehyde for 10 min and permeabilized with 1% Triton X-100 in PBS for 10 min. Cells were acidified to denature the DNA (2 N HCl, 10 min), neutralized (0.1 M sodium borate, 10 min) and then rinsed extensively in PBS. After blocking with 10% NGS (10 min) the cells were labeled with monoclonal anti-BrdU antibody (1/400) followed by Alexa 568 nm anti-mouse antibody (1/200). Nuclei were stained with 4′6-diaminido-2-phenylindole (DAPI; Sigma). […] Images were acquired with a CoolSNAP HQ2 camera and analyzed with Metamorph 7.1.7.0. software. Minimums of 200 cells were scored for BrdU incorporation, and experiments were repeated at least three times.

F98 cells [5] = assay: BrdU incorporation (cell proliferation); type: cell-based, rat; settings: 100 μM, 72 hours
Protocol: as §4

glioma cells = assay: Peptide uptake by glioma cells: temperature/energy dependence and sequence specificity; type: cell-based
Protocol: To evaluate the internalization of fluorescein-labeled NFL-TBS40-63 peptide by FACS, glioma cells or astrocytes were seeded in 35 mm dishes and cultured for 1 hour at 37° C. in media containing fluorescein-labeled NFL-TBS40-63 peptide at increasing concentrations or with vehicle (PBS). Cells were trypsinized, washed twice in cold PBS before incubation with trypsin (1 mg/mL) during 15 min at 37° C. To investigate a possible energy-dependant mechanism for the uptake of the peptide, cells were incubated at 4° C. with 20 μM fluorescein-labeled NFL-TBS2 peptide (after 15 min of 4° C. preincubation), or with 10 mM sodium azide in the presence of 6 mM 2-deoxy-D-glucose for 1 hour to deplete cellular ATP before addition of 20 μM fluorescence-labeled NFL-TBS2 peptide. Cells were then washed once, resuspended in 500 μl containing 50 μg/mL propidium iodide (Sigma, Saint-Quentin Fallavier, France), and analyzed with FACScalibur flow cytometer. Experiment on each cell type was repeated three times. 20,000 events per sample were analyzed in each experiment.

rat astrocytes = assay: BrdU incorporation (cell proliferation); type: cell-based; settings: 100 μM, 72 hours
Protocol: as §4

F98 glioma cells [6] = assay: Immunocytochemistry: peptide penetration and microtubule network; type: cell-based, rat; settings: 10 μM, 6 h
Protocol: (§5) Cells were plated on coverslips and cultured in media containing biotinylated peptides (10 μM) for 6 hours. Following PBS washing, the cells were fixed for 10 min in 4% paraformaldehyde, and washed 3 times in PBS. They were then incubated for 10 min in a 0.5% triton X-100 permeabilization solution, washed 3 times in PBS before incubation in a blocking solution (5% BSA) for 15 min. Glioma cells and astrocytes were incubated overnight at 4° C. with mouse anti-B-tubulin antibody (Sigma) 1/200, and neurons with mouse anti-Bill-tubulin antibody 1/200. Tubulin and biotinylated peptides were localized using respectively Alexa 568 nm anti-mouse antibody and streptavidin Alexa 488 nm (Molecular Probes) 1/200 for 1 hour, followed by washing in PBS. The preparations were counterstained with 3 μM 4′6-diaminido-2-phenylindole (DAPI; Sigma) for 5 min, and washed twice with PBS. Coverslips were mounted with an antifading solution.
(§6) Observations were carried out with an Olympus confocal microscope (BX50) using Fluoview.3.1. Software or a Leica DMI6000 inverted microscope. Images were acquired with a CoolSNAP-HQ2 camera and analyzed with Metamorph 7.1.7.0. software. Cells that are positive for peptide staining and cells with destroyed microtubule network were counted. Experiments on each cell type were repeated at least three times, and minimums of 200 cells were analyzed for each experiment.

9L glioma cells [7] = assay: as above; type: cell-based, rat; settings: 10 μM, 6 h
Protocol: as §5, §6

rat primary astrocytes = assay: as above; type: cell-based; settings: 10 μM, 6 h
Protocol: Rat primary astrocytes were obtained from cultures of cerebral cortex as originally described (McCarthy and de Vellis, 1980). Briefly, the cerebral cortex was dissected from newborn rats and cells were recovered after tissue homogenization, trypsination, and centrifugation. They were grown during 3 weeks in DMEM media with glucose and L-glutamine (Lonza France), containing 10% fetal calf serum (Lonza France), 1% penicillin/streptomycin (Sigma) in humidified incubator gassed with 5% CO2 (37° C.).
Cells were plated on coverslips and cultured in media containing biotinylated peptides (10 μM) for 6 hours. Following PBS washing, the cells were fixed for 10 min in 4% paraformaldehyde, and washed 3 times in PBS. They were then incubated for 10 min in a 0.5% triton X-100 permeabilization solution, washed 3 times in PBS before incubation in a blocking solution (5% BSA) for 15 min. […]
as §3

F98 glioma cells [8] = assay: MTS cytotoxicity assay; type: cell-based, rat; settings: 100 μM, 72 hours
Protocol: as §1

9L glioma cells [9] = assay: MTS cytotoxicity assay; type: cell-based, rat; settings: 100 μM, 72 hours
Protocol: as §1

[10] = Non tumor-bearing (control) rats, intracerebral peptide injection; type: in vivo, rat

Molecule: CC(=O)O[C@H]1C(=O)[C@@]2(C)[C@H]([C@H](OC(=O)c3ccccc3)[C@]3(O)C[C@H](OC(=O)[C@H](O)[C@@H](NC(=O)c4ccccc4)c4ccccc4)C(C)=C1C3(C)C)[C@]1(OC(C)=O)CO[C@@H]1C[C@@H]2O [taxol, paclitaxel]
- cell survival compared with NFL-TBS40-63 peptide (MTS) [1]: at the same level

Molecule: NFL-SCR: similarly labeled scrambled peptide, control scrambled sequence of NFL-TBS40-63 (SLGSPSSSVRASYSSSRSYVYSSS; also: N-terminal label (biotin or carboxyfluorescein), not given here for this peptide)
- apoptotic response (primary astrocytes): has no effect
- apoptotic response (9L cells [2]): has no effect
- apoptotic response (F98 cells [3]): has no effect
- cells with altered microtubule network (rat neurons): didn't alter the microtubule network
- inhibition of BrdU incorporation (9L cells [4]): has no effect
- inhibition of BrdU incorporation (F98 cells [5]): has no effect
- internalization into glioma cells (glioma cells): absence of internalization
- effect on proliferation (BrdU incorporation) (rat astrocytes): has no effect
- total cells with altered microtubule network (spherical shape, aggregated tubulin) (F98 glioma cells [6]): didn't alter the microtubule network
- total cells with altered microtubule network (spherical shape, aggregated tubulin) (9L glioma cells [7]): didn't alter the microtubule network
- cells with altered microtubule network (rat primary astrocytes): didn't alter the microtubule network

Molecule: YSSYSAPVSSSLSVRRSYSSSSGS [NFL-TBS40-63]
- reduction of cell viability (MTS) (F98 glioma cells [8]): 60.8%±2.8
- reduction of cell viability (MTS) (9L glioma cells [9]): 30.0%±4.4
- cellular defects in normal brain ([10]; injected in normal brain): no major cellular defects
- clinical signs of distress (weight loss, hunched posture) ([10]; non tumor-bearing rats treated with the peptide): no clinical signs of distress
- elimination of the peptide from normal brain ([10]; same procedure, days 16, 24 or 30): rapidly eliminated and was not detectable at these time points
